For experiment [1], the system named is senescent cells in induced Saos2-p21 cells and irradiated human diploid lung fibroblasts (DLFs). Kind of experiment: Streptavidin-HRP/DAB labeling of cell spreads. Type of experiment: cell-based. The settings on record: cell spreads on cover slips, panels 6ai and 6bi. How it is done: In inventive example 3, the derivative […] was used to detect senescent cells in cell spreads using streptavidin-horse radish peroxidase (HRP)/DAB labeling.
Induced and non-induced Saos2-p21^WAF1/Cip1 […] cells as well as human lung fibroblasts (DLFs) non- and y-irradiated were grown on cover slips and collected before and after the mentioned respective treatments for induction of senescence. Cover slips were treated as follows: • a. Fixation in ice-cold ethanol or methanol for 4 min. • b. Blocking of endogenous peroxidase activity with 3% H2O2 for 10 min. • c. Quick wash in 50% (v/v) ethanol. • d. Application of LG13 dye, diluted in ethanol and filtered, on cells for 10 min. • e. Quick wash in 50% (v/v) ethanol. • f. Transfer and wash in TBS or PBS solution. • g. Incubation in streptavidin-HRP (horse radish peroxidase) conjugated (dilution 1/200), for ½ hr at room temperature. • h. Quick wash in TBS or PBS solution. • i. Staining with 3,3′-Diaminobenzidine (DAB) solution (dilution 1/300 in TBS or PBS) for 1 min at room temperature. • j. Counterstain with Nuclear Fast Red, followed by mounting with glycerol and sealing with a cover slip. • k. Microscopy observation.

For experiment [2], the system named is senescent cells in U2OS hCdt1 Tet-ON cell line, palbociclib-induced human melanoma xenograft mouse model, irradiated human breast tissue. The experiment is described as follows: Hybrid histo-/immunochemical assay (HIC) compared with SBB histochemical stain (HC). How it is done:
• 1. Compound (LG13) • 2. 100% ethanol (100% EtOH) • 3. Parafilm • 4. Fritted glass filter of medium porosity • 5. Airtight Dye Container 2.2.2 General Procedure: • 1. Dissolve 40 mg of the compound (LG13) in 7.4 ml 100% EtOH in a glass beaker and cover it with parafilm. • 2. Incubate at 56° C. in a waterbath for 120 min until the compound is completely dissolved. 2.3. General Method for Compound (LG13) Staining 2.3.1 Materials: • 1. Xylene • 2. […] Syringe • 4. 13 mm filter, membrane 0.22 μm • 5. Soft paper (dry or dipped in ethanol) • 6. Anti-biotin antibody ([Hyb-8] ab201341, Abcam) • 7. Ultravision Quanto Detection System HRP DAB kit (Cat no: TL-125-QHD) • 8. Glycerol (Sigma-Aldrich) • 9. Tris Buffered Saline (TBS; 10×): 1.5 M NaCl, 0.1 M Tris-HCl, pH 7.4. Store at 4° C. • 10. 0.5% Triton X/TBS: 0.5 ml Triton X diluted in 99.5 ml TBS • 11. Mounting media Glycergel (DakoCytomation). • 12. Light Microscope • 13. Anti-p21^WAF1/Cip1 mouse primary antibody [(F-5)(sc-6246) Santa-Cruz] • 14. […] Fluorescence microscope 2.3.2 General Procedures: 2.3.2.1 General Staining Protocol for Cells Mounted on Coverslips • 1. […] The staining reaction is monitored under the light microscope until detection of the signal (average time 5-8 min). • 8. […] The staining reaction is monitored under the light microscope until detection of the dark brown signal (average time 30 sec-1 min) at RT 1. • 20. […]

Here are results for one molecule from US11034839B2, “Compounds, linked with haptens, for the detection of senescent cells” (THE UNIVERSITY OF MANCHESTER, priority 2016, dated 2021).

`CC1(COC(=O)CCCC[C@H]2SC[C@H]3NC(=O)N[C@H]32)Nc2cccc3c(/N=N/c4ccc(/N=N/c5ccccc5)c5ccccc45)ccc(c23)N1` (stereo partly drawn) [LG13, (2-methyl-6-((E)-(4-((E)-phenyldiazenyl)naphthalen-1-yl)diazenyl)-2,3-dihydro-1H-perimidin-2-yl)methyl 5-((3aR,4R,6aS)-2-oxohexahydro-1H-thieno[3,4-d]imidazol-4-yl)pentanoate]: the “colour of senescent cells after streptavidin-HRP/DAB detection” value in experiment [1] is reported as “clear dark-brown color”. Besides, in experiment [2] (U2OS hCdt1 Tet-ON, palbociclib melanoma xenograft, irradiated human breast tissue, FIG. 14 ai, bi, ci), the “IHC staining relative to SBB HC staining” value is listed as “superiority”. For the same molecule, the “senescence detection using the HIC assay” value in experiment [2] (additional cellular systems, mouse models, human clinical samples, FIG. 14 aii, bii, cii) is “sensitive senescence detection”.
